These results are taken from patent US6297230A, “Cyanoaziridines for treating cancer” (priority 2000, dated 2001).

For data set [1], the system named is Human 8226 myeloma tumors. As to the kind of experiment: Antitumor efficacy in SCID mice bearing human 8226 myeloma tumors (40-fold doxorubicin resistant). It is filed as in vivo, human tumor xenograft in SCID mice. The text has this:
Testing for Antitumor Efficacy in Mice with Severe Combined Immunodeficiency Disease (SCID)
The SCID mouse represents an autosomal recessive mutation in an inbred strain of […] mice which renders the animals profoundly immunodeficient and able to accept tissue xenografts from rats, humans or other strains of mice. (Ware, et al., J Immunol Methods 85:353-361, 1985.) The immunologic defect results from an inability to carry out normal immunoglobulin and T-cell receptor recombination reactions during the development of T- and B-lymphocytes. This renders mice with very low levels of T- and B-cells, and low levels of antibody production which allows foreign (allogeneic or xenogeneic) tissue grafts to grow in vivo. […] (Phillips, et al., Curr Top Microbiol Immunol 152:259-263, 1989.) Compared to athymic nude mice, SCID mice accept more tumor tissue types and breed more efficiently. (Phillips, et al., Curr Top Microbiol Immunol 152:259-263, 1989.) The SCID mice are also more sensitive to ionizing radiation (Budach, et al., Cancer Res 52(22):6292-6296, 1992) due to a defect in DNA double strand break repair. (Chang, et al., Cancer Res 53:1244-1248, 1993.) Because some SCID mice can spontaneously revert to a more normal phenotype, serum immunoglobulin […] (IgG) levels are routinely measured and if elevated (leaky phenotype syndrome), the mouse is excluded from further study.
The SCID mouse colony is maintained in a barrier facility with specially filtered air, autoclaved (sterilized) food and water and protective handling precautions (gloves, mask, gown) to prevent inadvertent infection. For tumor studies, human tumor cells are grown in vitro, harvested, counted and injected subcutaneously into the front flank area. Tumor cell innocula range from 10^6 -2×10^7 cells/mouse. Palpable tumors begin to develop after 1-3 weeks and sizes are determined by caliper measure of the widest perpendicular diameters. These dimensions are converted to mass using the formula:
wherein W=the shorter of the two dimensions and L=the longer diameter value.
Tumor growth rates are plotted as mass (g) per days after inoculation.
Drug treatments are given by intravenous (IV) or intraperitoneal (IP) injection beginning 24 hours after tumor implantation (day 1). […] Drug therapy began 1 day later with AMP-404 dissolved in a water-miscible co-solvent system containing (per mL): benzyl alcohol 30 mg; polysorbate 80 mw, 80 mg; polyethylene glycol 300 mw, 650 mg; and q.s. to 1.0 mL in absolute ethanol. The daily dose was either 50 mg/kg or 100 mg/kg. […]

Data set [2] is described as follows: Body weight and lethality in SCID mice treated with AMP-404. The data set is classed as in vivo. How it is done: The SCID mouse colony is maintained in a barrier facility with specially filtered air, autoclaved (sterilized) food and water and protective handling precautions (gloves, mask, gown) to prevent inadvertent infection. For tumor studies, human tumor cells are grown in vitro, harvested, counted and injected subcutaneously into the front flank area. Tumor cell innocula range from 10^6 -2×10^7 cells/mouse. Palpable tumors begin to develop after 1-3 weeks and sizes are determined by caliper measure of the widest perpendicular diameters. These dimensions are converted to mass using the formula: […]
Drug treatments are given by intravenous (IV) or intraperitoneal (IP) injection beginning 24 hours after tumor implantation (day 1). […] Drug therapy began 1 day later with AMP-404 dissolved in a water-miscible co-solvent system containing (per mL): benzyl alcohol 30 mg; polysorbate 80 mw, 80 mg; polyethylene glycol 300 mw, 650 mg; and q.s. to 1.0 mL in absolute ethanol. The daily dose was either 50 mg/kg or 100 mg/kg. Therapy was continued daily for […] and tumors were measured three times per week up to the 7 week ending period (two weeks after stopping drug therapy).

Take `N#CC1CN1C(=O)Nc1ccccc1` (stereo not shown) [AMP 404, 2-Cyanoaziridine-1-(N-phenyl)carboxamide]: in data set [1] (50 mg/kg daily), the Antitumor effect entry is recorded as “not active”. The “Mean (SD) tumor volume” value in data set [1] (50 mg/kg daily, Week 3) is 104.2 (78.6) mm^3; in data set [1] (50 mg/kg daily, Week 4), 247.9 (225.9) mm^3; in data set [1] (50 mg/kg daily, Week 5), 574.2 (296.2) mm^3; in data set [1] (50 mg/kg daily, Week 6) it was 1,020 (396.2) mm^3; in data set [1] (50 mg/kg daily, Week 7) it was 1,858.4 (941.4) mm^3; in data set [1] (100 mg/kg daily, Week 3, P-value .005 vs control), 32.9 (17.9) mm^3. For the same molecule, the “Mean (SD) tumor volume” value in data set [1] (100 mg/kg daily, Week 4, P-value .068 vs control) was 104.9 (81.8) mm^3; in data set [1] (100 mg/kg daily, Week 5, P-value .229 vs control), 312.5 (195.5) mm^3; in data set [1] (100 mg/kg daily, Week 6, P-value .100 vs control) it was 357.3 (314.5) mm^3; in data set [1] (100 mg/kg daily, Week 7, P-value 0.19 vs control) it was 824.5 (793.7) mm^3. The “Mean reduction in tumor volume” value in data set [1] (100 mg/kg) is 50%. In addition, the “Tumor size at end of 6 week experiment” value in data set [1] (100 mg/kg, control approximately 1,000 mm^3) was “approximately 300 mm^3”. For the same molecule, in data set [1] (after inoculation), the “Onset of developing palpable tumors” value was determined as 3 weeks. Further, the “Tumor take rate (% of inoculated mice developing palpable tumors)” value in data set [1] (all 3 groups) is recorded as 100%. Further, in data set [1] (multidrug-resistant human myeloma, SCID mice), the “Antitumor activity in vivo” value is reported as “active against multidrug-resistant human myeloma cells in vivo”. For the same molecule, the Weight loss entry in data set [2] (50 mg/kg daily) is on record as “no apparent weight loss”. The “Mean body weight loss compared to control” value in data set [2] (100 mg/kg daily) is listed as 15-20%. Also, the Drug-induced lethality entry in data set [2] (mouse, in vivo) is recorded as “no drug-induced lethality”.
